Experimental data reported in patent publication US20090029949A1, “GPCR Ligands Identified by Computational Modeling” (priority 2006, published 2009).
Entries after “also recorded” stand apart in the source; their conditions may differ. Peptide text beside a SMILES is read from it. * marks the point of attachment. Dnp = O=[N+]([O-])c1ccc(*)c([N+](=O)[O-])c1

Experiments:
S1P1 mutant V6.40L = target: T1, S1P1 mutant V6.40L (Homo sapiens, UniProt P21453, V261L); assay: [35S]GTPγS binding, S1P1 V6.40L; assay type: biochemical; settings: S1P1 V6.40L, result in words
T1 construct: expressed in transfected cells; host or cells: RH7777
Method: (§1) RH7777 and HEK-293 cells (ATCC, Manassas, Va.) were maintained in Dulbecco's modified minimal essential medium (DMEM) containing 10% fetal bovine serum (Hyclone, Logan, Utah). Cells (2×10^6) were transfected with 2 μg of plasmid DNA with Effectene (Qiagen, Valencia, Calif.) according to the manufacturer's instructions, for 24 h. Before ligand binding and receptor activation assays, the cells were washed twice with serum-free DMEM and serum-starved for at least 6 h.
(§2) S1P1 Receptor Activation Assays Receptor functional assays were performed in transiently transfected RH7777 cells by measuring S1P-activated [^35S]GTPγS binding as previously described (28).

S1P1 mutant W6.48A = target: T2, S1P1 mutant W6.48A (Homo sapiens, UniProt P21453, W269A); assay: [35S]GTPγS binding, S1P1 W6.48A; assay type: biochemical; settings: S1P1 W6.48A, result in words, compared with S1P
T2 construct: expressed in transfected cells
Method: as §1, §2

S1P1 mutant F5.48G = target: T3, S1P1 mutant F5.48G (Homo sapiens, UniProt P21453, F210G); assay: [35S]GTPγS binding, S1P1 F5.48G; assay type: biochemical; settings: S1P1 F5.48G, result in words, compared with S1P
T3 construct: expressed in transfected cells
Method: as §1, §2

S1P1 mutant L3.36E = S1P1 mutant L3.36E (Homo sapiens, UniProt P21453, L128E); assay: [35S]GTPγS binding, S1P1 L3.36E; assay type: biochemical; parameters: expressed in transfected cells; host or cells: RH7777 (transient, pcDNA3.1); settings: S1P1 L3.36E, result in words, compared with S1P
Method: as §1, §2

WT S1P1 = WT S1P1 (Homo sapiens, UniProt P21453); assay: Ligand-induced [35S]GTPγS binding, WT S1P1; assay type: biochemical; parameters: expressed in transfected cells; host or cells: RH7777 (transient, pcDNA3.1); settings: for S1P1 receptor activation in the GTPγS activation assay: at 10 μM, versus vehicle; for S1P1 agonist character: result in words
Method: as §1, §2

LPA2 = LPA2 (Homo sapiens, UniProt Q9HBW0); assay: LPA agonist/antagonist activity at LPA2 (Table 2); assay type: cell-based; settings: for LPA2 effect: result in words
LPA3 = target: T4, LPA3 (Homo sapiens, UniProt Q9UBY5); assay: LPA agonist/antagonist activity at LPA3 (Table 2); assay type: cell-based; settings: for LPA3 effect: result in words; for LPA3 inhibition of 200 nM LPA response at 30JM: compound at 30JM
T4 sequence (Q9UBY5 1-353): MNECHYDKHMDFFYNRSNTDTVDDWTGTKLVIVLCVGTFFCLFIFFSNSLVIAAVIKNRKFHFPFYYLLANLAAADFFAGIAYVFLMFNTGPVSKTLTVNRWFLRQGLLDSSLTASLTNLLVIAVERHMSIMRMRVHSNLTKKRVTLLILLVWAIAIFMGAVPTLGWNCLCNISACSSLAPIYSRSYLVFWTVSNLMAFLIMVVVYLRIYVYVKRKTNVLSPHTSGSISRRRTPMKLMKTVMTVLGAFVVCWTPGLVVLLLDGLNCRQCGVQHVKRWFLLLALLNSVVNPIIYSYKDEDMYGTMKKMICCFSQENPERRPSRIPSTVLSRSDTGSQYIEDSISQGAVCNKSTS

LPA1 = LPA1 (Homo sapiens, UniProt Q92633); assay: LPA agonist/antagonist activity at LPA1 (Table 2); assay type: cell-based; settings: for LPA1 effect: result in words
Chain of LPA1 (Q92633 whole entry, species assumed): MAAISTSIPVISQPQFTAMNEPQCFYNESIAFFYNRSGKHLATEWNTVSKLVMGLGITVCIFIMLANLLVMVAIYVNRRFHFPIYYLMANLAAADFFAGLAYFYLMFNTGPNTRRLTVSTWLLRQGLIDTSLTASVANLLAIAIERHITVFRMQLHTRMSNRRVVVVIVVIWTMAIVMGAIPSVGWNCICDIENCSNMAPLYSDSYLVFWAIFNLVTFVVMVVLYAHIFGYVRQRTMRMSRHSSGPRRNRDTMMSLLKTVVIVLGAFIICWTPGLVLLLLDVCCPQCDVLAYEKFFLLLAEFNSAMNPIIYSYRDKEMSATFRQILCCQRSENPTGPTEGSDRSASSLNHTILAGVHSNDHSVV

Chain of LPA2 (Q9HBW0 whole entry, species assumed): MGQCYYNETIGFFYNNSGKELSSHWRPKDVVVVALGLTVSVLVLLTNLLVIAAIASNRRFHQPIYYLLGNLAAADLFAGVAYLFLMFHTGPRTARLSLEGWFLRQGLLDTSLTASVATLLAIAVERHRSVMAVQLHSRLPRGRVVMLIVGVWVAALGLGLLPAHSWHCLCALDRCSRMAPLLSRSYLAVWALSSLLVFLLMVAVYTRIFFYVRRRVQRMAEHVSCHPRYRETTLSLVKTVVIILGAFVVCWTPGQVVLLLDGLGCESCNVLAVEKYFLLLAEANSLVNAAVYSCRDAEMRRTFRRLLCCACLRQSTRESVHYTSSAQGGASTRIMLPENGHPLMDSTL
Chain of WT S1P1 (P21453 whole entry): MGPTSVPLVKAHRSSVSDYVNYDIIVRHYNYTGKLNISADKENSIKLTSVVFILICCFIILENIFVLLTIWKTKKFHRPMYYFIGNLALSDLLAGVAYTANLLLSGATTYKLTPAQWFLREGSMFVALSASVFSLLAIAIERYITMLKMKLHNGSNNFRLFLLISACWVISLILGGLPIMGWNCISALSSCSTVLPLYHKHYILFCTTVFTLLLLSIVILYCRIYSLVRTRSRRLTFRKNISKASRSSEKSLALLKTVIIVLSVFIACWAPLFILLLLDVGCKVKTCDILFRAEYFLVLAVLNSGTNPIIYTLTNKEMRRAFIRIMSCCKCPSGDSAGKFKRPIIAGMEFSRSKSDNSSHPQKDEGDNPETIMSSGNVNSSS
T1 sequence (P21453 whole entry V261L): as the sequence (P21453 whole entry) above, with V261L counted along it
T3 sequence (P21453 whole entry F210G): as the sequence (P21453 whole entry) above, with F210G counted along it
Chain of S1P1 mutant L3.36E (P21453 whole entry L128E): as the sequence (P21453 whole entry) above, with L128E counted along it
T2 sequence (P21453 whole entry W269A): as the sequence (P21453 whole entry) above, with W269A counted along it

SMILES | IC50 (LPA2) | IC50 (LPA3) | LPA3 Inhibition of 200 nM LPA response (LPA3) | LPA1 effect (LPA1) | LPA2 effect (LPA2) | further results
FC(F)(F)c1cccc(-c2noc(-c3cc(-c4ccccc4)c(C(F)(F)F)s3)n2)c1 [SEW2871] | – | – | – | – | – | ligand-induced GTPγS activation (S1P1 mutant V6.40L): slightly activated; also recorded: partial activation; ligand-induced GTPγS activation (S1P1 mutant V6.40L; listed as SE2871): dose-dependent partial activation; ligand-induced GTPγS activation (S1P1 mutant W6.48A): similarly impaired activation; ligand-induced GTPγS activation (S1P1 mutant F5.48G): similarly impaired activation; ligand-induced GTPγS activation (S1P1 mutant L3.36E): similarly impaired activation
O=C(c1ccccc1Cc1ccc2ccc(C(F)(F)F)cc2c1)c1cccc2ccccc12 [NSC99548] | – | – | – | – | – | S1P1 receptor activation in the GTPγS activation assay (WT S1P1): GTPγS activation greater than that of the vehicle; S1P1 agonist character (WT S1P1): partial agonists
O=P(O)(O)OC[C@H]1O[C@@H](n2cnc3c(NCc4ccccc4)ncnc32)C(O)C1O (some centres unmarked) [NSC 255523] | – | – | – | No effect | No effect | LPA3 effect (LPA3): PotentiatesLPA-inducedactivation
O=C(NC(Cc1ccc2c(c1)OCO2)C(=O)O)c1ccccc1 (centres unmarked) [NSC 10188] | 6900 nM | – | – | Weak agonist | – | LPA2 inhibition of 200 nM LPA response at 30JM (LPA2; 200 nM LPA, compound at 30JM): 55.8%; LPA3 effect (LPA3): No effect
OC1C(O)[C@@H](COP(O)(O)=S)O[C@H]1n1cnc2c(NCc3ccccc3)ncnc21 (some centres unmarked) | – | – | – | No effect | PotentiatesLPA-inducedactivation | LPA3 effect (LPA3): No effect
CCN(CC)CCOc1ccc(/C(C#N)=C\c2ccc(C(F)(F)F)cc2)cc1 [NSC59474] | – | – | – | – | – | S1P1 receptor activation in the GTPγS activation assay (WT S1P1): GTPγS activation greater than that of the vehicle; S1P1 agonist character (WT S1P1): partial agonists
Cc1cc2nc3c(=O)[nH]c(=O)nc-3n(CCOC(=O)CCC(=O)O)c2cc1C [NSC 3066] | 167 nM | 103 nM | – | – | – | Ki (LPA2): 78.7 nM; Ki (LPA3): 44.8 nM; IC50 (LPA1): 197 nM; Ki (LPA1): 91.7 nM
COC(=O)C(CCC(=O)O)N1C(=O)c2ccccc2C1=O (centres unmarked) [NSC 16540] | 100 nM | 231 nM | 59.7% | No effect | – | LPA2 Inhibition of 10 nM LPA response (LPA2): 50.9%
NCC(=O)NC(CSc1ccc([N+](=O)[O-])cc1[N+](=O)[O-])C(=O)NC(CCC(=O)O)C(=O)O (centres unmarked) [NSC 161613] (H-Gly-Cys(Dnp)-Glu-OH; configuration not given here) | – | 24 nM | 69.8% | No effect | No effect | –
CCCC(=O)Nc1ncnc2c1ncn2C1OC2COP(=O)(O)OC2C1OC(=O)CCC (centres unmarked) [NSC 143108] | – | 1310 nM | – | Weak agonist | No Effect | LPA3 inhibition of 200 nM LPA response at 30JM (LPA3): 61.0%

Further lines, with some results ahead:

IC50 (LPA2) | IC50 (LPA3) | LPA3 Inhibition of 200 nM LPA response (LPA3) | LPA1 effect (LPA1) | LPA2 effect (LPA2) | SMILES | further results
88 nM | 517 nM | 49.9% | No Effect | – | COc1ccc(C(=O)CCCC(=O)O)c(OC)c1O [NSC 10167] | LPA2 Inhibition of 10 nM LPA response (LPA2): 47.4%
172 nM | 35 nM | – | – | – | Cn1c(=O)c2c(nc(C(=N)SCC(=O)O)n2C)n(C)c1=O [NSC 62586] | Ki (LPA2): 117 nM; Ki (LPA3): 15.7 nM; IC50 (LPA1): 234 nM; Ki (LPA1): 91.7 nM
355 nM | 30 nM | 81.7% | No effect | – | O=C(O)/C=C/C(=O)Nc1cccc(NC(=O)/C=C/C(=O)O)c1C(=O)O [NSC 47091] | LPA2 Inhibition of 10 nM LPA response (LPA2): 53.5%
20 nM | 9 nM | 58.7% | No effect | – | O=C(O)CCC(NC(=O)OCc1ccccc1)C(=O)NC(Cc1ccccc1)C(=O)O (centres unmarked) [NSC 18760] | LPA2 Inhibition of 10 nM LPA response (LPA2): 53.3%
– | – | – | Weak agonist | No Effect | COc1ccc2c(c1)c(CC(=O)O)c(C)n2C(=O)c1ccc(Cl)cc1 [NSC 77541] | LPA3 inhibition of 200 nM LPA response at 30JM (LPA3): 76.2%
